Test results: US7670613B2, “Androgen modulators” (Pfizer Inc., priority 2004, dated 2010)

System: male C3H/HeN mice
Experiment: Modified telogen conversion assay
Type: in vivo, mouse
Settings: topical 1% and 3% w/v, twice daily for 4 weeks, observed 35 days or longer
Excerpt: The telogen conversion assay measures the potential of a compound to convert the resting stage of the hair growth cycle (“telogen”) to the active stage of the hair growth cycle (“anagen”) in mice. This assay takes advantage of the fact that the fur (i.e. hair) of 7-week-old C3H/HeN mice is in the telogen phase. This phase continues until about 75 days of age. In this assay, selected areas of the mice are shaved, contacted with a test agent, or a control, and the difference in the rate of hair growth is measured (i.e. induction of the anagen phase). The first sign of anagen is the darkening of skin color as melanocytes in the follicles start to synthesize melanin, in preparation for the production of pigmented hairs. This model has a number of advantages. This includes the ready availability of female CH3HeN mice, the ability to screen large numbers of compounds quickly, and the ease of housing and handling such animals.
It has been discovered that male C3H/HeN mice may be used in the telogen conversion assay, when evaluating anti-androgen test compounds. Thus, the model relates to a modification of the existing telogen conversion assay. […]
The treatment area was observed and graded every other day for signs of hair growth. The hair growth response was quantified by recording, for each animal, the day on which signs of hair growth first appeared over the treated area. […]

Structure (SMILES): CC1CCCCC1Oc1ccc(C#N)c(C(F)(F)F)c1 (stereo not shown) [Example 8, 4-(2-Methyl-cyclohexyloxy)-2-trifluoromethyl-benzonitrile]
- Initiation of anagen (first signs of hair growth) versus vehicle control: not initiated in either of the test groups prior to its occurrence in the vehicle control group
